Measurements published in patent US7148212B2, “Process for production of steroid crystals, steroid crystals obtained thereby and pharmaceutical preparations containing them” (Schering AG, priority 2002, dated 2006).
Marks after values point to notes of the source that are not given here.

Experiment: Particle size distribution (Sympatec HELOS, dry dispersion)
Format: physicochemical
Method: Particle Size Distribution:
• Sympatec HELOS (H0445), dry dispersion system (RODOS), pressure 2 bar Content Uniformity Test: • Content Determination according to USP/Ph. Eur. for individual capsules after elution through HPLC with external calibration • Column: LiChrosphere 5μ RP-18 encapped, 150×3 mm • Eluent: acetonitrile/water=45/55 • Flow: 1 ml/min • Detection UV (272 nm) Active Ingredient Release: • Active ingredient release measured in 1000 mL water with 0.3% sodium dodecyl sulfate, 100 rpm • Content Determination y HPLC with external calibration • Column: LiChrosphere 5μ RP-18 encapped, 150×3 mm • Eluent: acetonitrile/water=45/55 • Flow: 1 ml/min • Detection UV (272 nm)

[1] = Example 1 microcrystals, ethyl acetate, three cycles 55/20° C., air dried
[2] = after drying on filter (ethyl acetate suspension)
[3] = after spray-drying (ethanol/water suspension)
[4] = suspension in ethanol/water (90/10) with 10% by weight microcrystalline J956, before drying
[5] = suspension in ethyl acetate with 14% by weight microcrystalline J956, before drying

## CCNC(=O)ON=Cc1ccc(C2CC3(C)C(CCC3(COC)OC)C3CCC4=CC(=O)CCC4=C23)cc1 (stereo not drawn) [J956, 11β-{4-[(ethylaminocarbonyl)oximinomethyl]phenyl}-17β-methoxy-17α-methoxymethyl-estra-4,9-dien-3-one]
[1]
  Particle size X10: 2.62 μm
  Particle size X50: 10.4 μm
[2]
  Particle size X10: 2.7 μm
  Particle size X50: 10.61 μm
  Particle size X90: 24 μm
[3]
  Particle size X10: 2.25 μm
  Particle size X50: 8.03 μm
  Particle size X90: 17 μm
  Particle size X100: 43 μm
[4]
  Particle size X10: 2.11 μm
  Particle size X50: 8.6 μm
  Particle size X90: 19 μm
  Particle size X100: 51 μm
[5]
  Particle size X10: 2.62*** μm
  Particle size X50: 10.4 μm
  Particle size X90: 24 μm
